# Experimental data from patent publication US5594006A, “Carbostyril derivatives as matrix metalloproteinases inhibitors” (Otsuka Pharmaceutical Co., Ltd., priority 1993, dated 1997).
# Tests used:
# Interstitial collagenase = biological target: T1, Interstitial collagenase (Homo sapiens, UniProt P03956); experiment: Interstitial collagenase inhibiting activity (fluorescence labeled collagen); assay type: biochemical; conditions: from human fibroblast cell (Detroit 551); 2 hours at 35° C., pH 7.5
# T1 construct: endogenous in cells; host or cells: Detroit 551 (human fibroblasts), culture supernatant, purified
# T1 sequence (P03956 100-469): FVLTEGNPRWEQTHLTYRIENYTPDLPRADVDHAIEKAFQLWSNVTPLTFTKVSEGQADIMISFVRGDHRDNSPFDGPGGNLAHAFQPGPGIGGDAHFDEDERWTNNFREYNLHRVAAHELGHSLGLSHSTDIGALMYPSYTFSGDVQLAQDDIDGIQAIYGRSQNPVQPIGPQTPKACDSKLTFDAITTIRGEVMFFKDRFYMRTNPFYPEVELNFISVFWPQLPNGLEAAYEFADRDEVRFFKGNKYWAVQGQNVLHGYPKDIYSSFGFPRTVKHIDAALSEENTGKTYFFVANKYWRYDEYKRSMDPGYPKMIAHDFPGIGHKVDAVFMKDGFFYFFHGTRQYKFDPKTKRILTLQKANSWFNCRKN
# Method: (2) Measuring Method of Interstitial Collagenase Inhibiting Activity
# Inhibiting of interstitial collagenase refined from the culture supernatant of human fibroblast cell (Detroit 551 cell) was measured by using fluorescence labeled collagen, according to the method proposed by Nagai et al. [Inflammation, 4 (2), 123 (1984)].
# The enzyme was activated by incubating for 3 hours at 37° C. in 1 mM mercury (II) p-aminophenylacetate. The test compound was used by dissolving in dimethyl sulfoxide. The enzyme reaction was started by adding the activated enzyme in 50 mM TRIS-hydrochloric acid (pH 7.5), 0.2M NaCl, 5 mM CaCl2, 0.02% (w/v) NaN3, 2.5 mM acetic acid, and 0.1% (v/v) dimethyl sulfoxide solution containing the test compound and 0.025% (w/v) of fluorescence labeled collagen as substrate. The reaction was conducted for 2 hours at 35° C., and stopped by adding ice-chilled 80 mM O-phenanthroline, 50% (v/v) ethanol solution by 1/20 amount. To this, moreover, an equivalent volume of 50 mM TRIS-hydrochloric acid (pH 7.5), 0.2M NaCl, 5 mM CaCl2, 0.02% (w/v) NaN3 solution was added to incubate further for 1 hour at 35° C. to degenerate specifically only the digestion product, and the digestion product was extracted by adding 0.17M TRIS-hydrochloric acid (pH 9.5), 0.67M NaCl solution including an equivalent amount of 70% (v/v) ethanol, and afterwards, by centrifugal separation for 15 minutes at 3000 rpm, 4° C., the undigested substrate was precipitated. The fluorescence intensity of the obtained supernatant was measured at 520 nm (Em)/495 nm (Ex), and the decomposition volume was quantitatively determined.
# (§1) The enzyme inhibiting activity was expressed by the concentration (IC50) of the test compound wherein the enzyme activity of known amount was inhibited till 50%.
# Stromelysin = biological target: T2, Stromelysin (Mus musculus, UniProt P28862); experiment: Stromelysin inhibiting activity (fluorescence labeled casein); assay type: biochemical; conditions: from mouse colon cancer cell (Colon 26); 3 hours at 37° C., pH 7.5
# T2 construct: endogenous in cells; host or cells: Colon 26 (mouse colon cancer cells), culture supernatant, purified
# T2 sequence (P28862 100-477): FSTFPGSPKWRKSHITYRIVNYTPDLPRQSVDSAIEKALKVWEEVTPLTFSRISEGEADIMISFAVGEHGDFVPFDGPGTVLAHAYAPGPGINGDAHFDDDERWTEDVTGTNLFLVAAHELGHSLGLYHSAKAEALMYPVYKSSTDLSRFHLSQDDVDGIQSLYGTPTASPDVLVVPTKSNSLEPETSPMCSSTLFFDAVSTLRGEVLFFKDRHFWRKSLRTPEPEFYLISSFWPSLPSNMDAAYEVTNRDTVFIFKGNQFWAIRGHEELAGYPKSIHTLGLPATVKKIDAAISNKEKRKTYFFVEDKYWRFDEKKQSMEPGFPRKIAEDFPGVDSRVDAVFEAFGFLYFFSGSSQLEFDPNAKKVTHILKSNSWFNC
# Method: (1) Measuring Method of Stromelysin Inhibiting Activity
# Inhibiting of Stromelysin refined from the culture supernatant of mouse colon cancer cell (Colon 26 cell) was measured by using fluorescence labeled casein, according to the method proposed by Miyazaki et al. (J. Biochem., 108, 537-543, 1990), and S. S. Twining [Fed. Proc., 42, 1951 (1984)].
# The enzyme was activated by incubating for 2 hours at 37° C. in 1 mM mercury (II) p-aminophenylacetate. The test compound was used by dissolving in dimethyl sulfoxide. The enzyme reaction was started by adding the activated enzyme in a solution of 50 mM TRIS-hydrochloric acid (pH 7.5), 10 mM CaCl2, and 0.1% (v/v) dimethyl sulfoxide containing the test compound and 0.25% (w/v) of fluorescence labeled casein as substrate. The reaction was conducted for 3 hours at 37° C., and stopped by adding an equivalent amount of 5% (w/v) trichloroacetic acid solution. Afterwards, by centrifugal separation for 15 minutes at 3000 rpm, 4° C., the undigested substrate was precipitated, and to 1 part by volume of the obtained supernatant, 4 parts by volume of 0.3M phosphate buffer (pH 8.5) was added, and the fluorescence intensity was measured at 520 nm (Em)/495 nm (Ex), and the decomposition volume was quantitatively determined.
# as §1
# Type IV collagenase = Type IV collagenase inhibiting activity (fluorescence labeled gelatin); assay type: biochemical, human; conditions: from HT-1080 cell; 6 hours at 37° C., pH 7.5
# Method: (3) Measuring Method of Type IV Collagenase Inhibiting Activity
# Inhibiting of type IV collagenase refined from the culture supernatant of human […] (HT-1080 cell) was measured by using fluorescence labeled gelatin, according to the method proposed by Haris et al. [Haris, E. D., and Krane, S. M., Biochim. Biophys. Acta., 258, 566-576 (1972)].
# The enzyme was activated by incubating for 22 hours at 37° C. in 1 mM mercury (II) p-aminophenylacetate. The test compound was used by dissolving in dimethyl sulfoxide. The enzyme reaction was started by adding the activated enzyme in 50 mM TRIS-hydrochloric acid (pH 7.5), 10 mM CaCl2, 0.01% (w/v) "Bridge 35" (tradename, available from Wako Pure Chemical Industries, Ltd.), 0.1% (v/v) dimethyl sulfoxide solution containing the test compound and 0.1% (w/v) of fluorescence labeled gelatin as substrate. The reaction was conducted for 6 hours at 37° C., and stopped by adding 30% (w/v) trichloroacetic acid solution by 1/2 amount. After letting stand at 4° C. for 30 minutes, by centrifugal separation for 10 minutes at 10000 rpm, 4° C., the undigested substrate was precipitated. To 1 part by volume of the obtained supernatant, 50 parts by volume of 0.3M phosphate buffer (pH 8.5) was added, and the fluorescence intensity was measured at 520 nm (Em)/495 nm (Ex), and the undigested amount was quantitatively determined.
# The enzyme inhibiting activity was expressed by the concentration (IC50) of the test compound wherein the enzyme activity of known amount was blocked till 50%.
# [1] = tested on: Colon 26 PMF15 tumor cells; experiment: Lung metastasis of Colon 26 PMF15 tumor in mice after oral administration; assay type: in vivo, male CDF1 mice; conditions: Test I; for Number of lung metastastic nodules mean ± S.E.: day 28; for Ratio to control group: lung nodules
# Method: Experiment was carried out according to a method of Motoyama et al. [Gan To Kagaku Ryoho (JAPAN), 21(8): pages 1209-1214, 1994]. That is, Colon 26 PMF15 tumor cells (5×10^5 /mouse) were inoculated into the left hind footpad of male CDF1 mice (one group comprising 7 mice). After 14 days from inoculation, the left hind-limb was cut from the upper part of the articulatio geniculum under pentobarbital anesthetization using a cautery knife to remove the primary tumor. After 28 days from inoculation,the lung was removed and the number of metastastic nodules on the surface thereof were measured, thereby taking it as an index of the effect. The test compound was orally administered one time a day until 27 days have passed since the day following the day when tumor cells were inoculated, excluding the day when the primary tumor was removed.
IC50 (Interstitial collagenase) [µM],IC50 (Stromelysin) [µM],IC50 (Type IV collagenase) [µM],Compound,other results
0.36,0.15,0.54,"CC(C)C[C@@H](C(=O)N[C@H]1Cc2ccccc2NC1=O)[C@H](CS)C(=O)NO [Test compound 5, 3S-[4-(N-hydroxyamino)-2R-isobutyl-3S-mercaptomethylsuccinyl]amino-3,4-dihydrocarbostyril]",
0.45,0.49,0.51,"COc1ccc2c(c1)NC(=O)[C@@H](NC(=O)[C@@H](CC(=O)NO)CC(C)C)C2 [Test compound 2, 3S-[4-(N-hydroxyamino)-2R-isobutylsuccinyl]amino-7-methoxy-3,4-dihydrocarbostyril]",
0.21,0.57,1.7,"CC(C)C[C@H](CC(=O)NO)C(=O)N[C@H]1Cc2ccccc2NC1=O [Test compound 1, 3S-[4-(N-hydroxyamino)-2R-isobutylsuccinyl]amino-3,4-dihydrocarbostyril]",
2.9,0.85,1.9,"CC(=O)SC[C@H](C(=O)NO)[C@@H](CC(C)C)C(=O)N[C@H]1Cc2ccccc2NC1=O [Test compound 4, 3S-[4-(N-hydroxyamino)-2R-isobutyl-3S-acetylthiomethylsuccinyl]amino-3,4-dihydrocarbostyril]",
0.11,,2.2,"CC(C)C[C@H](CC(=O)NO)C(=O)N[C@H]1Cc2cc3c(cc2N(C)C1=O)OCO3 [Test compound 27, 3S-[4-(N-hydroxyamino)-2R-isobutylsuccinyl]amino-1-methyl-6,7-methylenedioxy-3,4-dihydrocarbostyril]",
,0.023,0.018,"CC(C)C[C@@H](C(=O)N[C@H]1Cc2ccccc2NC1=O)C(CN1C(=O)c2ccccc2C1=O)C(=O)NO (single isomer, unassigned) [Test compound 7, 3S-[4-(N-hydroxyamino)-2R-isobutyl-3(R or S)-phthalimidomethylsuccinyl]amino-3,4-dihydrocarbostyril]",
0.14,,9.8,"COCOCCN1C(=O)[C@@H](NC(=O)[C@@H](CC(=O)NO)CC(C)C)Cc2ccccc21 [Test compound 19, 3S-[4-(N-hydroxyamino)-2R-isobutylsuccinyl]amino-1-methoxymethoxyethyl-3,4-dihydrocarbostyril]",
,,1.4,"3S-[4-(N-hydroxyamino)-2R-isobutyl-3S-methylsuccinyl]amino-1-(4-methoxybenzyl)-3,4dihydrocarbostyril [Example 31]",
0.0024,0.027,0.058,"CC(C)C[C@@H](C(=O)N[C@H]1Cc2ccccc2NC1=O)[C@H](CSc1cccs1)C(=O)NO [Test compound 6, 3S-[4-(N-hydroxyamino)-2R-isobutyl-3S-(2-thienylthiomethyl)succinyl]amino-3,4-dihydrocarbostyril]",
,,0.34,"3S- [4-(N-hydroxyamino)-2R-isobutyl-3S-methylsuccinyl]amino-3,4-dihydrocarbostyril [Example 17]",
,,0.24,"1-(4-carboxybenzyl)-3(R or S)-[4-(N-hydroxyamino)-2R-isobutylsuccinyl]amino-3,4-dihydrocarbostyril [Example 30]",
0.014,,0.2,"CCCCC[C@H](CC(=O)NO)C(=O)N[C@H]1Cc2cc3c(cc2N(CC)C1=O)OCO3 [Test compound 29, 1-ethyl-3S-[4-(N-hydroxyamino)-2R-pentylsuccinyl]amino-6,7-methylenedioxy-3,4-dihydrocarbostyril]",
0.69,1.3,0.53,"CON1C(=O)[C@@H](NC(=O)[C@@H](CC(=O)NO)CC(C)C)Cc2ccccc21 [Test compound 3, 3S-[4-(N-hydroxyamino)-2R-isobutylsuccinyl]amino-1-methoxy-3,4-dihydrocarbostyril]",Number of lung metastastic nodules mean ± S.E. ([1]; 25 mg/kg/day oral): 19.0 ± 3.7; Number of lung metastastic nodules mean ± S.E. ([1]; 50 mg/kg/day oral): 18.7 ± 6.0; Number of lung metastastic nodules mean ± S.E. ([1]; 100 mg/kg/day oral): 13.0 ± 5.2; Number of lung metastastic nodules mean ± S.E. ([1]; 200 mg/kg/day oral): 9.2 ± 2.8; Ratio to control group ([1]; 25 mg/kg/day oral): 90%; Ratio to control group ([1]; 50 mg/kg/day oral): 88%; Ratio to control group ([1]; 100 mg/kg/day oral): 61%; Ratio to control group ([1]; 200 mg/kg/day oral): 43%

Compound,IC50 (Interstitial collagenase) [µM],IC50 (Stromelysin) [µM],IC50 (Type IV collagenase) [µM],other results
"3S- [4-(N-hydroxyamino)-2R-isobutyl-succinyl ]amino-1-isobutoxy-3,4-dihydrocarbostyril [Example 21]",,,0.34,
